Among the data in ChEMBL document CHEMBL4052783, “Effects of novel triple-stage antimalarial ionic liquids on lipid membrane models” (Bioorg Med Chem Lett, 2017) are deltaH and Tm values, retold here.

Test [1] concerns Lipid bilayer. The test is described as follows: Binding affinity to DPPG membrane assessed as change in enthalpy for main transition temperature at 1:10 compound/DPPG molar ratio by differential scanning calorimetric method (reference value: 8.7 KJ/mol).
Test [2] concerns Lipid bilayer. Nature of the test: Binding affinity to DPPG membrane assessed as pre-transition temperature at 1:10 compound/DPPG molar ratio by differential scanning calorimetric method (reference value: 34.5 degreeC).
The test system of test [3] is Lipid bilayer. Nature of the test: Binding affinity to DPPG membrane assessed as main transition temperature at 1:10 compound/DPPG molar ratio by differential scanning calorimetric method (reference value: 40.3 degreeC).
Test [4] deals with Lipid bilayer. The test is described as follows: Binding affinity to DPPC membrane assessed as change in enthalpy for main transition temperature at 1:10 compound/DPPC molar ratio by differential scanning calorimetric method (reference value: 7.22 kJ/mol).
Test [5] has as its system Lipid bilayer. The test is described as follows: Binding affinity to DPPC membrane assessed as main transition temperature at 1:10 compound/DPPC molar ratio by differential scanning calorimetric method (reference value: 41.5 degreeC).
Test [6] relates to Lipid bilayer. Nature of the test: Binding affinity to DPPG membrane assessed as change in enthalpy for pre-transition temperature at 1:10 compound/DPPG molar ratio by differential scanning calorimetric method (reference value: 0.74 KJ/mol).

On to `COc1cc(NC(C)CCCNC(=O)/C=C/c2ccc(Cl)cc2)c2ncccc2c1` (stereo not given), for which the deltaH in the test on Lipid bilayer [1] is 2.46 kcal/mol; in the test on Lipid bilayer [4], 2.05 kcal/mol; in the test with Lipid bilayer [6], 0.143 kcal/mol. Moreover, the Tm in the test with Lipid bilayer [2] stood at 32.7 °C; with Lipid bilayer [3], 39 °C; in the test with Lipid bilayer [5], 40.1 °C.

For `CC(C)c1ccc(/C=C/C(=O)O)cc1.COc1cc(NC(C)CCCN)c2ncccc2c1` (stereo not given), the deltaH in the test with Lipid bilayer [1] turned out to be 2.35 kcal/mol; with Lipid bilayer [4], 2.22 kcal/mol. The figures for the Tm in the test on Lipid bilayer [3] and in the test with Lipid bilayer [5] were 38.3 °C and 40.2 °C, respectively.

As to `COc1cc(NC(C)CCCN)c2ncccc2c1.O=C(O)/C=C/c1ccc(Cl)cc1` (stereo not given), the deltaH is 2.23 kcal/mol in the test with Lipid bilayer [1] and 2.29 kcal/mol with Lipid bilayer [4]. The Tm with Lipid bilayer [3] came out at 38.1 °C; in the test on Lipid bilayer [5], 40.7 °C.

In the case of `COc1cc(NC(C)CCCNC(=O)/C=C/c2ccc(C(C)C)cc2)c2ncccc2c1` (stereo not given), the deltaH with Lipid bilayer [1] was found to be 2.22 kcal/mol; in the test on Lipid bilayer [4], 1.89 kcal/mol; with Lipid bilayer [6], 0.103 kcal/mol. Moreover, the Tm in the test on Lipid bilayer [2] came out at 32.4 °C; in the test on Lipid bilayer [3], 39 °C; with Lipid bilayer [5] it was 40.1 °C.
